Data on two compounds can be found in patent publication US20070148258A1, “Dialysates and methods and systems related thereto” (priority 2003, published 2007).

Read-outs that look alike come from different tables or passages of the source.

The subject of data set [1] is normal aortas. Briefly: Calcification of normal aortas cultured in high-PO4 medium with added enzymes. The data set is classed as cell-based, rat. The note with it: enzyme added to culture in DMEM with 3.8 mM PO4 (inorganic pyrophosphatase 12-20 units/ml, 9 days).
The conditions of data set [2]: human, in vivo. Here is the method: To determine whether PPi metabolism is altered in hemodialysis patients, plasma levels and dialytic clearance of PPi were measured in stable hemodialysis patients. Predialysis plasma samples were obtained from 15 patients in an outpatient dialysis unit and from 23 inpatients. The inpatients were clinically stable and were admitted for transplant evaluation or for dialysis access problems.

The conditions of data set [3]: 4 L PPi in physiologic saline, 400 ml/min, dialysate without calcium 800 ml/min, 2.1 m^2 cellulose acetate membrane. Here is the method:
FIG. 2 is an exemplary graph illustrating the results of in vitro dialysis of pyrophosphate. […] The concentration of pyrophosphate was measured at the times indicated. The line represents a single exponential fit.
(§1) Several studies were undertaken to determine the extent of PPi removal with dialysis. […] In 17 patients, some of whom were included in the predialysis data, plasma PPi concentration was measured before and after dialysis (FIG. 3).

The conditions of data set [4]: human, in vivo. The protocol: Samples were drawn immediately before and immediately after dialysis from the predialyzer tubing. The lines to the left and right indicate the mean values before and after dialysis respectively.
as §1
Dialysate was collected during 4 treatments in 4 different patients order to measure the total amount of PPi removed.
The source holds these as a separate data set.

For data set [5], the system named is injured aortas. The protocol: Injured aortas were incubated for 6 days in DMEM containing 3.8 mM PO4^−3 and varying concentrations of pyrophosphate. Results are means of at least 4 aortic rings.
Data set [6] has as its system aortic cultures. The note with it: based on rate of hydrolysis of [32P]pyrophosphate.

Turning to Alkaline phosphatase, in data set [1], the “Effect on calcification of normal aortas” value is reported as “induced calcification”.

Take `O=P(O)(O)OP(=O)(O)O` [pyrophosphate]: the “Mean plasma [PPi] lower in hemodialysis patients than in normal subjects” value in data set [2] turned out to be 31%. Moreover, in data set [3], the “In vitro dialyzer clearance of PPi” value stood at 36%. In addition, the “Decrease of plasma PPi concentration after dialysis, range” value in data set [4] is 4-59%. For the same compound, in data set [5] (2.5 M pyrophosphate, 6 days in DMEM with 3.8 mM PO4), the “Inhibition of calcification in injured aortas” value is “no inhibition”. Also, the “Concentrations at which inhibition of vascular calcification occurs in vitro” value in data set [5] (concentrations normally present in human plasma) fell in the range of 3 to 5 µM. For the same compound, in data set [5] (cultured rat aortas), the “Concentration that maximally inhibited calcification in injured aortas” value is on record as “approximately 3 μM”. The “Estimated pyrophosphate concentration 3 days after adding” value in data set [6] (5 μM added) is 18 µM; in data set [6] (10 μM added) it was 3.1 µM; in data set [6] (30 μM added) it was 7.9 µM.
